Earlier results on three molecules are cited in patent US20210284969A1, “METHODS AND SYSTEMS FOR TRANSPORTATION AND CULTURE OF BUOYANT TISSUE” (eXo Cell, LLC, priority 2020, published 2021).

For series [1], the system named is brown adipose tissue. The conditions noted are these: in humans.
The test system of series [2] is obese human males.
In series [3] the test system is obese, diabetic yellow KK mice.

Consider `Nc1nc(CC(=O)Nc2ccc(CCNC[C@H](O)c3ccccc3)cc2)cs1` [migrabegron], for which the “brown adipose tissue activation” value in series [1] is reported as “activate brown adipose tissue”. In the case of `O=S(=O)(Nc1ccc(CCNC[C@H](O)c2cccnc2)cc1)c1ccc(-c2nc(-c3ccc(C(F)(F)F)cc3)cs2)cc1` [L-796568], in series [2], the anti-obesity effects result is reported as “did not generate notable anti-obesity effects” and the energy expenditure entry was “improved energy expenditure”.

For the molecule `C[C@H](Cc1ccc2c(c1)OC(C(=O)[O-])(C(=O)[O-])O2)NC[C@H](O)c1cccc(Cl)c1.[Na+].[Na+]` [CL-316243], the effect on obesity entry in series [3] is on record as “ameliorated obesity”.
